Eleven molecules from ChEMBL document CHEMBL1153186, “In vitro antitubercular and antimicrobial activities of 1-substituted quinoxaline-2,3(1H,4H)-diones” (2010) can be followed below.

What all share (assay type): functional
Holding throughout (details): read-out: IZ

The test system of assay [1] is Staphylococcus aureus. Put plainly: Antibacterial activity against Staphylococcus aureus at 100 ug/disk by agar plate disk diffusion method. On the technique in general: A growth-free zone around the sample is the usual read-out of agar diffusion tests.
For assay [2], the system named is Candida albicans. Put plainly: Antifungal activity against Candida albicans at 100 ug/disk by agar plate disk diffusion method.
Assay [3] relates to Aspergillus niger. Put plainly: Antifungal activity against Aspergillus niger at 100 ug/disk by agar plate disk diffusion method.
Assay [4] concerns Pseudomonas aeruginosa. Put plainly: Antibacterial activity against Pseudomonas aeruginosa at 100 ug/disk by agar plate disk diffusion method.
The test system of assay [5] is Escherichia coli. Put plainly: Antibacterial activity against Escherichia coli at 100 ug/disk by agar plate disk diffusion method.
The test system of assay [6] is Proteus vulgaris. Put plainly: Antibacterial activity against Proteus vulgaris at 100 ug/disk by agar plate disk diffusion method.
For assay [7], the system named is Candida albicans. Put plainly: Antifungal activity against Candida albicans at 50 ug/disk by agar plate disk diffusion method.
Assay [8] concerns Aspergillus niger. In words: Antifungal activity against Aspergillus niger at 50 ug/disk by agar plate disk diffusion method.
For assay [9], the system named is Escherichia coli. In words: Antibacterial activity against Escherichia coli at 50 ug/disk by agar plate disk diffusion method.
Assay [10] has as its system Proteus vulgaris. In words: Antibacterial activity against Proteus vulgaris at 50 ug/disk by agar plate disk diffusion method.
Assay [11] concerns Staphylococcus aureus. Put plainly: Antibacterial activity against Staphylococcus aureus at 50 ug/disk by agar plate disk diffusion method.
Assay [12] relates to Pseudomonas aeruginosa. Put plainly: Antibacterial activity against Pseudomonas aeruginosa at 50 ug/disk by agar plate disk diffusion method.

For `CC(=O)n1c(=O)c(=O)[nH]c2ccccc21`, the zone of inhibition at 100 µg/disc in the assay on Staphylococcus aureus [1] is 20 mm; in the assay on Candida albicans [2], 0 mm; in the assay on Aspergillus niger [3], 20 mm; in the assay on Pseudomonas aeruginosa [4], 29 mm; with Escherichia coli [5], 24 mm; in the assay on Proteus vulgaris [6], 26 mm.

Turning to `O=c1[nH]c2ccccc2n(Cn2cnc3ccccc32)c1=O`, the zone of inhibition at 100 µg/disc in the assay on Staphylococcus aureus [1] turned out to be 36 mm; in the assay on Candida albicans [2] it was 18 mm; in the assay with Aspergillus niger [3], 25 mm; with Pseudomonas aeruginosa [4] it was 35 mm; in the assay with Escherichia coli [5], 33 mm; in the assay on Proteus vulgaris [6] it was 32 mm.

On to `COc1cc(O)ccc1/C=C/C(=O)n1c(=O)c(=O)[nH]c2ccccc21`, for which the zone of inhibition at 100 µg/disc in the assay on Staphylococcus aureus [1] is 16 mm; in the assay with Candida albicans [2], 10 mm; in the assay on Aspergillus niger [3], 16 mm; in the assay on Pseudomonas aeruginosa [4] it was 18 mm; in the assay with Escherichia coli [5] it was 16 mm; in the assay with Proteus vulgaris [6], 18 mm.

For `O=c1[nH]c2ccccc2n(Cn2nnc3ccccc32)c1=O`, the zone of inhibition at 100 µg/disc in the assay with Staphylococcus aureus [1] amounted to 29 mm; in the assay on Candida albicans [2], 20 mm; in the assay with Aspergillus niger [3] it was 28 mm; in the assay on Pseudomonas aeruginosa [4], 39 mm; in the assay with Escherichia coli [5] it was 39 mm; with Proteus vulgaris [6], 34 mm.

Consider `O=c1[nH]c2ccccc2n(CN(c2ccccc2)c2ccccc2)c1=O`, for which the zone of inhibition at 100 µg/disc amounted to 26 mm with Staphylococcus aureus [1]; 20 mm with Candida albicans [2]; 28 mm in the assay with Aspergillus niger [3]; 35 mm with Pseudomonas aeruginosa [4]; 30 mm with Escherichia coli [5]; 30 mm in the assay with Proteus vulgaris [6].

Turning to `O=C1c2ccccc2C(=O)N1Cn1c(=O)c(=O)[nH]c2ccccc21`, the zone of inhibition at 100 µg/disc in the assay with Staphylococcus aureus [1] came to 29 mm; with Candida albicans [2], 23 mm; in the assay on Aspergillus niger [3], 23 mm; in the assay with Pseudomonas aeruginosa [4] it was 34 mm; in the assay with Escherichia coli [5], 30 mm; in the assay on Proteus vulgaris [6], 31 mm.

Turning to `O=C(/C=C/c1ccccc1)n1c(=O)c(=O)[nH]c2ccccc21`, the zone of inhibition at 100 µg/disc came out at 20 mm in the assay on Staphylococcus aureus [1]; 18 mm in the assay on Candida albicans [2]; 24 mm in the assay with Aspergillus niger [3]; 29 mm in the assay with Pseudomonas aeruginosa [4]; 26 mm in the assay with Escherichia coli [5]; 30 mm in the assay on Proteus vulgaris [6].

Turning to `CN(C)c1ccc(/C=C/C(=O)n2c(=O)c(=O)[nH]c3ccccc32)cc1`, the zone of inhibition at 100 µg/disc in the assay on Staphylococcus aureus [1] worked out at 18 mm; in the assay on Candida albicans [2], 0 mm; in the assay on Aspergillus niger [3], 0 mm; in the assay on Pseudomonas aeruginosa [4], 31 mm; in the assay with Escherichia coli [5], 33 mm; with Proteus vulgaris [6], 33 mm.

As for `CC1=NNC(=O)C1Cn1c(=O)c(=O)[nH]c2ccccc21` (stereo not given), the zone of inhibition at 100 µg/disc in the assay on Staphylococcus aureus [1] worked out at 33 mm; in the assay on Candida albicans [2], 21 mm; with Aspergillus niger [3], 23 mm; in the assay with Pseudomonas aeruginosa [4] it was 39 mm; in the assay with Escherichia coli [5] it was 37 mm; in the assay on Proteus vulgaris [6], 32 mm.

For `Clc1ccccc1C(c1ccccc1)(c1ccccc1)n1ccnc1` [CLOTRIMAZOLE], the zone of inhibition at 50 µg/disc with Candida albicans [7] amounted to 13 mm; in the assay with Aspergillus niger [8], 21 mm.

Turning to `CCn1cc(C(=O)O)c(=O)c2ccc(C)nc21` [NALIDIXIC ACID], the zone of inhibition at 50 µg/disc with Escherichia coli [9] was determined as 25 mm; with Proteus vulgaris [10], 34 mm; with Staphylococcus aureus [11] it was 24 mm; with Pseudomonas aeruginosa [12] it was 22 mm.
